Test results reported in patent US20250099407A1, “2-AMINO BENZOPHENONE DERIVATIVES FOR TARGETED FERROPTOSIS INDUCTION IN CANCER THERAPY” (INDIAN INSTITUTE OF TECHNOLOGY KANPUR, priority 2023, published 2025).

Assays:
Format in all cases: cell-based
[1] = system: MCF7; assay: Cell viability, CellTiter-Glo assay, MCF7; settings: Homo sapiens
Procedure: (§1) The viability of screened cancer cells was recorded using a luminescence-based CellTiter-Glo® assay for the ATP quantification. The screening concentration of the molecule ranged from 100/10 μM to 45/4.5 nM with an 8-point-3-fold dilution series in DMEM media (>0.1% DMSO as control). Each experiment was conducted in more than two biological replicates with three technical replicates. The error bar is a representation of standard deviation among the technical replicates.
as §1, with “IITK3002” for “the molecule”, “10” for “100/10”, “4.5” for “45/4.5”
(§2) a. […] In parallel, we have also synthesized the bromoacetamide (IITK3002) version of the lead molecules which is slightly more reactive with thiol nucleophiles when compared to chlorooacetamide warheads as depicted in FIG. 13. […] In addition, we also evaluated the molecules' antiproliferative potency against a panel of twelve different cancer phenotypes. […]

[2] = system: HCT116; assay: Cell viability, CellTiter-Glo assay, HCT116; settings: Homo sapiens, HCT-116
Procedure: as §1
as §1, with “IITK3002” for “the molecule”, “10” for “100/10”, “4.5” for “45/4.5”
as §2

[3] = system: MDA-MB-231; assay: Cell viability, CellTiter-Glo assay, MDA-MB-231; settings: Homo sapiens; MDA-MB-231, cell viability
Procedure: as §1
as §1, with “IITK3002” for “the molecule”, “10” for “100/10”, “4.5” for “45/4.5”
as §2

[4] = system: RPMI 8226; assay: Cell viability, CellTiter-Glo assay, RPMI 8226; settings: Homo sapiens; RPMI 8226, cell viability
Procedure: as §1
as §1, with “IITK3002” for “the molecule”, “10” for “100/10”, “4.5” for “45/4.5”
as §2

[5] = system: 4T1; assay: Cell viability, CellTiter-Glo assay, 4T1; settings: Mus musculus; 4T1, cell viability
Procedure: as §1
as §1, with “IITK3002” for “the molecule”, “10” for “100/10”, “4.5” for “45/4.5”
as §2

[6] = system: Huh-7 cells; assay: Intracellular ROS, H2-DCFDA oxidation assay in Huh-7 cells; settings: Huh-7, 37° C., 30 min; IITK3001 and IITK3002 20 μM, H2O2 100 μM
Procedure: We used fluorescence imaging-based oxidation of H2-DCFDA by ROS for assessing intracellular oxidative stress. Huh-7 cells were treated at 37° C. for 30 min with IITK3001 and IITK3002 (20 μM), H2O2 (100 μM), ^tertBuOOH (20 μM), NAC (0.5 mM) and 0.1% DMSO as control. Each experiment was conducted in more than two biological replicates with three technical replicates.
b. Effect of Thiols and Ferroptosis Modulators on the Hit Molecules' Antiproliferative Potency: Ferroptosis is directly controlled by the intracellular thiol concentrations in the form of cysteine and glutathione. Several oxidative mechanisms are well-wired in ferroptotic cell death and we set out to investigate the precise molecular mechanism of our lead molecules. Both cysteine and glutathione (GSH) are the enriched thiol-containing small molecule antioxidant system that are essential regulators of redox modulation in cells including ferroptosis. Further, the enzyme glutathione peroxidase 4 (GPX4) is well characterized to specifically quench the lipid peroxide equivalents in cells through the conversion of […] in cells thereby restoring the reduced environment in cells. Therefore, first, we assessed the ability of N-acetylcysteine (NAC) and GSH to suppress our lead molecules antiproliferative activity (FIG. 4a, b). We found a drastic reduction in the molecules' potency with IITK3001 (>1000-fold reduction) and IITK3002 (>500-fold reduction) (FIG. 14a, b). Supporting that, the addition of DL-Buthionine sulfoximine (BSO), an inhibitor of y-glutamylcysteine synthetase (glutathione biosynthesis) combination with our lead molecules potentiated the overall inhibitory capacity (FIG. 14a, b). […] Finally, we assessed the effect of Ferrostain-1 (Fer-1) and Liproxstatin-1 (Lip-1), antioxidants that function by trapping reactive radicals in cells, particularly lipid-peroxide radicals, and preventing the accumulation of lipid peroxides in cells. […] The accumulation of lipid peroxides and overall ROS was also detected using a fluorescence-based H2DCF-DA assay as depicted in FIG. 15. […]

[7] = system: A375; assay: Cell viability, CellTiter-Glo assay, A375; settings: Homo sapiens, A-375
Procedure: as §1
as §1, with “IITK3002” for “the molecule”, “10” for “100/10”, “4.5” for “45/4.5”
as §2

EC50 [1] | EC50 [2] | EC50 [3] | EC50 [5] | EC50 [7] | SMILES | EC50 [4] | intracellular ROS, H2DCF-DA fluorescence intensity [6]
0.02 µM | 0.037 µM | 0.026 µM | 0.066 µM |  | CN(C(=O)CBr)c1ccccc1C(=O)c1ccccc1 [IITK3002, N-(2-benzoylphenyl)-2-bromo-N-methylacetamide] | 0.039 µM | intracellular ROS generation
0.312 µM | 0.168 µM | 0.184 µM | 0.499 µM | 0.352 µM | CN(C(=O)CCl)c1ccccc1C(=O)c1ccccc1 [IITK3001, N-(2-benzoylphenyl)-2-chloro-N-methylacetamide] | 0.133 µM | intracellular ROS generation
